Earlier results, collected in patent US20170020882A1, “ANTIVIRAL FORMULATION” (MEDA PHARMA SARL, priority 2008, published 2017).

Assays:
[1] = human, in vivo
cold sore lesions = conditions: human, in vivo

SMILES | frequency of aborted lesions [1] [%] | reduction in healing time (cold sore lesions) [days] | reduction of time to loss of pain (cold sore lesions) [days]
CC(=O)OCC(CCn1cnc2cnc(N)nc21)COC(C)=O [famciclovir] | 8 | – | –
Nc1nc2c(ncn2CCC(CO)CO)c(=O)[nH]1 [penciclovir] | – | 0.7 | 0.6
